Test results published in the supplement of paper PMC10307832.

Legend:
Experiment in all cases: relative viability (nuclei count vs DMSO), 5 days (fraction); higher = more cells survive
BAY61-3606 + Palbociclib = compound: COC1=C(C=C(C=C1)C2=CC3=NC=CN3C(=N2)NC4=C(C=CC=N4)C(=O)N)OC [BAY61-3606] + CC(=O)c1c(C)c2cnc(Nc3ccc(N4CCNCC4)cn3)nc2n(C2CCCC2)c1=O [Palbociclib] (partner 0.5 µM)
How it was run: (§1)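 Relative viability was taken as the ratio of nuclei in treated wells to nuclei in vehicle wells. Lung cancer cell lines in 1536-well plates received compounds by pin tool one day after seeding, either one drug alone or a fixed anchor-drug dose plus five library-drug doses (not always all listed) in √10 steps. Nuclei were counted on 4× images after 5 days of treatment, and values are medians of duplicate plates.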

Doxorubicin + Decitabine = compound: COc1cccc2c1C(=O)c1c(O)c3c(c(O)c1C2=O)C[C@@](O)(C(=O)CO)C[C@@H]3O[C@H]1C[C@H](N)[C@H](O)[C@H](C)O1 [Doxorubicin] + Nc1ncn([C@H]2C[C@H](O)[C@@H](CO)O2)c(=O)n1 [Decitabine] (partner 2 µM)
How it was run: as §1

BAY61-3606 + Pemetrexed = compound: COC1=C(C=C(C=C1)C2=CC3=NC=CN3C(=N2)NC4=C(C=CC=N4)C(=O)N)OC [BAY61-3606] + Nc1nc2[nH]cc(CCc3ccc(C(=O)N[C@@H](CCC(=O)O)C(=O)O)cc3)c2c(=O)[nH]1 [Pemetrexed] (partner 0.2 µM)
How it was run: as §1

Doxorubicin + Alpelisib = compound: COc1cccc2c1C(=O)c1c(O)c3c(c(O)c1C2=O)C[C@@](O)(C(=O)CO)C[C@@H]3O[C@H]1C[C@H](N)[C@H](O)[C@H](C)O1 [Doxorubicin] + Cc1nc(NC(=O)N2CCC[C@H]2C(N)=O)sc1-c1ccnc(C(C)(C)C(F)(F)F)c1 [Alpelisib] (partner 2 µM)
How it was run: as §1

Row | Cell Line | relative viability (BAY61-3606 + Palbociclib; first compound 0.02 µM) | relative viability (BAY61-3606 + Palbociclib; first compound 0.06325 µM) | relative viability (BAY61-3606 + Palbociclib; first compound 0.2 µM) | relative viability (BAY61-3606 + Palbociclib; first compound 0.6325 µM) | relative viability (BAY61-3606 + Palbociclib; first compound 2 µM) | relative viability (Doxorubicin + Decitabine; first compound 0.001 µM) | relative viability (Doxorubicin + Decitabine; first compound 0.003162 µM) | relative viability (Doxorubicin + Decitabine; first compound 0.01 µM) | relative viability (Doxorubicin + Decitabine; first compound 0.03162 µM) | relative viability (Doxorubicin + Decitabine; first compound 0.1 µM) | relative viability (BAY61-3606 + Pemetrexed; first compound 0.02 µM) | relative viability (BAY61-3606 + Pemetrexed; first compound 0.06325 µM) | relative viability (BAY61-3606 + Pemetrexed; first compound 0.2 µM) | relative viability (BAY61-3606 + Pemetrexed; first compound 0.6325 µM) | relative viability (BAY61-3606 + Pemetrexed; first compound 2 µM) | relative viability (Doxorubicin + Alpelisib; first compound 0.001 µM) | relative viability (Doxorubicin + Alpelisib; first compound 0.003162 µM) | relative viability (Doxorubicin + Alpelisib; first compound 0.01 µM) | relative viability (Doxorubicin + Alpelisib; first compound 0.03162 µM) | relative viability (Doxorubicin + Alpelisib; first compound 0.1 µM)
1 | SW 1573 | 0.455 | 0.423 | 0.35 | 0.344 | 0.248 | 0.566 | 0.417 | 0.166 | 0.129 | 0.098 | 0.924 | 0.833 | 0.804 | 0.916 | 0.53 | 0.904 | 0.731 | 0.641 | 0.447 | 0.428
2 | NCI-H1792 | 0.677 | 0.61 | 0.659 | 0.747 | 0.698 | 0.622 | 0.677 | 0.57 | 0.485 | 0.525 | 1.07 | 1.09 | 0.852 | 0.771 | 0.614 | 0.794 | 0.836 | 0.538 | 0.679 | 0.548
3 | HCC-827 | 0.514 | 0.456 | 0.467 | 0.484 | 0.234 | 0.339 | 0.328 | 0.333 | 0.264 | 0.262 | 0.274 | 0.295 | 0.274 | 0.254 | 0.262 | 1.04 | 1.15 | 0.968 | 1.02 | 1.05
4 | LC-2-ad | 0.479 | 0.516 | 0.454 | 0.532 | 0.453 | 0.764 | 0.842 | 0.831 | 0.92 | 0.759 | 0.289 | 0.267 | 0.261 | 0.289 | 0.267 | 0.892 | 0.87 | 0.924 | 0.859 | 0.724
5 | NCI-H520 | 0.218 | 0.246 | 0.254 | 0.265 | 0.22 | 0.53 | 0.471 | 0.416 | 0.328 | 0.47 | 0.75 | 0.782 | 0.768 | 0.684 | 0.467 | 0.903 | 1.05 | 0.858 | 0.732 | 0.738
6 | NCI-H460 | 0.171 | 0.126 | 0.256 | 0.257 | 0.086 | 0.445 | 0.375 | 0.282 | 0.0686 | 0.0323 | 0.0615 | 0.0666 | 0.0787 | 0.0676 | 0.0667 | 0.584 | 0.386 | 0.288 | 0.024 | 0.0112
7 | SK-LU-1 | 0.356 | 0.384 | 0.35 | 0.357 | 0.289 | 0.68 | 0.745 | 0.554 | 0.445 | 0.473 | 0.974 | 1.02 | 1.01 | 0.968 | 0.661 | 1.03 | 0.995 | 0.783 | 0.46 | 0.322
8 | COR-L23 | 0.338 | 0.252 | 0.377 | 0.347 | 0.215 | 0.427 | 0.452 | 0.391 | 0.253 | 0.157 | 0.198 | 0.203 | 0.2 | 0.202 | 0.195 | 0.826 | 0.806 | 0.866 | 0.428 | 0.128
9 | NCI-H1299 | – | – | – | – | – | – | – | – | – | – | – | – | – | – | – | 1.06 | 1.12 | 1.08 | 1.07 | 1.06
10 | NCI-H1703 | – | – | – | – | – | – | – | – | – | – | – | – | – | – | – | 0.335 | 0.293 | 0.365 | 0.214 | 0.201
11 | NCI-H2228 | 0.989 | 0.916 | 0.731 | 0.766 | 0.553 | – | – | – | – | – | 0.326 | 0.325 | 0.391 | 0.393 | 0.369 | 0.724 | 0.822 | 0.647 | 0.393 | 0.198
12 | ChaGo-K-1 | 0.934 | 0.846 | 0.89 | 0.916 | 0.865 | 0.524 | 0.557 | 0.482 | 0.473 | 0.527 | 0.265 | 0.268 | 0.253 | 0.265 | 0.253 | – | – | – | – | –
13 | NCI-H2342 | 0.469 | 0.48 | 0.517 | 0.602 | 0.63 | 0.703 | 0.778 | 0.786 | 0.63 | 0.748 | 0.748 | 0.774 | 0.716 | 0.825 | 0.811 | – | – | – | – | –
14 | SW 900 | 0.518 | – | – | 0.566 | 0.434 | – | 0.461 | 0.449 | 0.403 | 0.449 | 0.473 | – | – | 0.465 | 0.358 | – | – | – | – | –
15 | NCI-H727 | 0.737 | 0.588 | 0.637 | 0.635 | 0.631 | 0.913 | 0.909 | – | 0.89 | 0.909 | – | – | – | – | – | 0.45 | 0.617 | 0.55 | 0.469 | 0.705
16 | NCI-H1563 | – | – | – | – | – | – | – | – | – | – | 0.894 | 0.745 | 0.669 | 0.84 | 0.712 | 0.888 | 0.824 | 0.726 | 0.529 | 0.51
17 | NCI-H1648 | 0.251 | 0.259 | 0.265 | – | 0.276 | 0.604 | 0.451 | 0.599 | 0.421 | 0.495 | 0.803 | 0.622 | 0.79 | – | 0.874 | – | – | – | – | –
18 | NCI-H522 | 0.938 | 0.823 | 1.23 | 0.982 | 0.704 | 0.647 | 0.704 | 0.634 | 0.683 | 0.601 | 1.15 | 0.966 | 1.04 | 0.907 | 0.817 | – | – | – | – | –
19 | A549 | – | – | – | – | – | 0.245 | 0.266 | 0.257 | 0.179 | 0.235 | – | – | – | – | – | 0.799 | 0.676 | 0.48 | 0.132 | 0.0649
20 | NCI-H1650 | 0.316 | 0.291 | 0.37 | 0.413 | 0.298 | 0.396 | 0.314 | 0.361 | 0.245 | 0.135 | 0.351 | 0.356 | 0.42 | 0.46 | 0.331 | – | – | – | – | –
21 | ABC-1 | 0.39 | 0.576 | 0.705 | 0.796 | 0.716 | 0.993 | 1.18 | 0.955 | 0.708 | 0.726 | – | – | – | – | – | 1.04 | 0.922 | 1.02 | 0.504 | 0.361
